A word on the IC50: it is the concentration needed to halve the response being measured.

Data set [1] can be described thus: Body weight of MV-4-11 xenograft model mice (tolerability). The conditions noted are these: female BALB/c nude mice, PO QD 30 mg/kg; for Body weight: Figure 1. In kind it is in vivo. An excerpt: (§1) To evaluate the effect of the compounds of the present invention on tumor growth, an MV-4-11 human myelomonocytic leukemia xenograft mouse model was established. Female BALB/c nude mice were procured from Shanghai Jihui Laboratory Animal Care Co., Ltd. Upon arrival, the mice were 6-7 weeks old and weighed 18-22 g. They were housed in specific pathogen-free (SPF) individually ventilated cages (IVC) at a density of 2-6 mice per cage, with ad libitum access to standard diet and water. The housing environment was maintained at 20 - 26 °C (68 - 79 °F) with a relative humidity of 40-70%, under a 12-hour light/dark cycle (lights on from 05:00 to 17:00). The study commenced after a one-week acclimatization period.
(§2) Human myelomonocytic leukemia MV-4-11 cells (ATCC, CRL-9591) were maintained in suspension culture using IMDM medium (Gibco, 12440-053) supplemented with 10% heat-inactivated fetal bovine serum (FBS; Gibco, 10099-141C) at 37 °C in a 5% CO2 atmosphere. Cells were passaged 2-3 times per week. Upon reaching the exponential growth phase, cells were harvested, counted, and inoculated subcutaneously into the right dorsal flank of female nude mice. Each mouse received a 200 µL suspension containing 8 × 10^6 MV-4-11 cells (100 µL cell suspension + 100 µL Matrigel basement membrane matrix, Corning, 354234). Thirteen days post-inoculation, when subcutaneous tumor volumes reached 100 - 300 mm^3 , tumor-bearing mice with appropriate morphology and uniform size were selected. Using stratified randomization, mice were assigned to experimental groups (n = 5 per group). Oral administration (PO, once daily [QD]) was initiated on the day of grouping, with all compounds of the present invention dosed at 30 mg/kg. During the dosing period, tumor diameters were measured twice weekly using digital calipers, and body weights were recorded. In the posttreatment observation period, tumor diameters and body weights were measured once weekly. Tumor volume (V) was calculated using the formula: V = 0.5 *a * b^2 , where a represents the long diameter and b represents the short diameter of the tumor.
(§3) The anti-tumor efficacy of the compounds was evaluated using the tumor growth inhibition percentage (TGI%), calculated by the formula: TGI(%) = [1 - (TVi - TV0) / (TVVi - TVV0)] *100%, where TV0 and TVV0 represent the mean tumor volumes on day 0 for the treatment and control groups, respectively, and TVi and TVVi represent the mean tumor volumes on day i for the treatment and control groups, respectively. Data were plotted using GraphPad Prism software. Tumor volume and body weight data are expressed as mean ± SEM and plotted as a function of time.

The next data set relates to MV-4-11 cells. The experiment in a line: Anti-proliferative activity against MV-4-11 cells (cell viability chemiluminescence). In kind it is cell-based. The conditions noted are these: MV4-11, 72 h, MV-4-11 human monocytic leukemia cells, three days of exposure. As to the method: This study utilized a cell proliferation assay to analyze the cytotoxicity of MV-4-11 human monocytic leukemia cells after three days of exposure to NMT1 inhibitors. The MV-4-11 cell line was purchased from Nanjing Cobuilder Biotechnology Co., Ltd., and cultured in IMDM medium (Viva cell) in an incubator (Thermo) at 37 °C with 5% CO2. In this experiment, NMT1 inhibitors were dissolved in DMSO to obtain 600 µM stock solutions. Dose-response solutions were prepared with a top endpoint compound concentration of 3 µM, followed by three-fold serial dilutions in DMSO, totaling eight data points. The final concentration of DMSO was 0.5%.
MV-4-11 cells were seeded into a white 96-well plate, 80 µL of cell suspension per well, containing 6000 MV-4-11 cells. The cell plate was placed in the CO2 incubator for overnight culture. Then, 20 µL of NMT1 inhibitor solutions at different concentrations were added to the wells. The 96-well plate was placed back into the incubator for three days. Another cell plate was prepared, and the signal was read on the day of drug addition to serve as the maximum value (Max value in the equation below) for data analysis. To this cell plate, 25 µL of cell viability chemiluminescence detection reagent was added per well, followed by incubation at room temperature for 10 minutes to stabilize the luminescence signal. A multi-label analyzer was used for reading.
The raw data were converted into inhibition rates using the equation (Sample - Min) / (Max - Min) * 100%. The IC50 values were then determined by fitting a four-parameter curve (using the "log(inhibitor) vs. response - Variable slope" model in GraphPad Prism). Min: wells treated with 0.5% DMSO; Max: Day 0 wells. Table 1 provides the inhibitory activity of the compounds of the invention on MV-4-11 cell proliferation. Table 1: Compound Inhibitory Activity against NMT1 Enzyme (IC50) and Anti-proliferative Activity against MV-4-11 Cell line (IC50)

A further data set concerns the target T1, NMT1 enzyme (Homo sapiens, UniProt P30419).
T1 sequence (P30419 1-496): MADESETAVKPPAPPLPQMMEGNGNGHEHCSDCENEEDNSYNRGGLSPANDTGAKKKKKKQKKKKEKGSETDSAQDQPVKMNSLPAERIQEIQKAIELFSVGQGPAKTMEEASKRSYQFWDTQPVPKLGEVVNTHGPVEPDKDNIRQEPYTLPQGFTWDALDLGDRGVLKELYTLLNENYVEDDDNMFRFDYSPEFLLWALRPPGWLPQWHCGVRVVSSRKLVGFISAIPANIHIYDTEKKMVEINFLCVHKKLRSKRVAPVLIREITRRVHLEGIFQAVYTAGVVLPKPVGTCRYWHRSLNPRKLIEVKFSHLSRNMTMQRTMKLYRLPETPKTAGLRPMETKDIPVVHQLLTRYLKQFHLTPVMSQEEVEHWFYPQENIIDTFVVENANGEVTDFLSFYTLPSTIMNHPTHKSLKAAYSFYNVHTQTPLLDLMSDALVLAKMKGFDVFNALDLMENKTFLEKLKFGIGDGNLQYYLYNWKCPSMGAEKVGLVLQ
In words: Inhibitory activity on NMT1 enzyme catalysis (fluorescence intensity assay). In kind it is biochemical. As to the method:
This study evaluated the ability of the compounds of the invention to inhibit NMT1 catalytic activity in vitro. […] The final concentration of the NMT1 enzyme was 6 nM, the final concentration of CPM (Reactive thiol fluorescence probe, Invitrogen, D346) was 1 µM, the final concentration of HSPP60 SRC was 20 µM, and the final concentration of DMSO was 0.5%.
Compounds were dissolved in DMSO to obtain 10 mM stock solutions. Dose-response solutions were prepared with a top endpoint compound concentration of 3 mM, followed by three-fold serial dilutions in DMSO, totaling ten data points. […] Then, 2.5 µL of the NMT1 enzyme working solution was added to the 384-well assay plate, followed by incubation at 25 °C for 10 minutes. Subsequently, 5 µL of the CPM and myristoyl-CoA working solution was added, the plate was centrifuged at 1000 rpm for 1 minute, and then 2.5 µL of the HSPP60 SRC working solution was added to initiate the reaction. The reaction was incubated at 25 °C for 45 minutes.
The IC50 curve of the compounds was fitted using the software XLfit 5.5.0 according to the nonlinear regression equation.

For a further data set, the system named is MV-4-11 tumors. The experiment in a line: In vivo anti-tumor efficacy in MV-4-11 xenograft mouse model. The conditions noted are these: female BALB/c nude mice, PO QD 30 mg/kg, Figure 2.
From the text: as §1, §2, §3

The nature of data set [2]: Plasma concentrations in mice following oral administration. The conditions noted are these: for concentration at 1 h / concentration at 4 h / concentration at 8 h: ICR, mouse, po, 10 mg/kg.
From the text: (§4) This study evaluated the plasma concentrations of the compounds of the present invention in mice. ICR mice were procured from JOINN Laboratories (Suzhou) Co., Ltd. At the initiation of dosing, the animals were 6-8 weeks old and weighed 18-25 g. Mice were housed in transparent plastic cages (400 mm*240 mm*200 mm). The animal facility maintained a 12-hour light/12-hour dark cycle (lights on 07:00-19:00) using fluorescent lighting. The dark period may be intermittently interrupted as required for study-related activities. Ambient temperature and relative humidity were controlled within 20-26 °C and 40-70%, respectively. Animals were fed certified rodent chow and provided with drinking water filtered and sterilized through an ultrapure water system. All animals had ad libitum access to water throughout the study. Animals were fasted for at least 12 hours prior to dosing, and food was restored 4 hours post-dosing.
(§5) Prior to dosing, body weights were recorded, and healthy animals with similar weights were selected and randomly assigned to groups (n = 3 per group) based on body weight. The compounds were formulated in a 0.5% aqueous carboxymethyl cellulose (CMC) solution and administered orally at a single dose of 10 mg/kg. Blood samples (≥0.2 mL) were collected via venipuncture at 1 h and 4 h post-dose into EDTA-K2 anticoagulant tubes. Tubes were gently inverted to mix, immediately placed in an ice-water bath, and rapidly centrifuged at 4,000 rpm for 10 min at 4 °C to separate plasma. Plasma was stored at -70 °C until analysis.
(§6) Calibration curve and QC plasma samples: Working solutions for the calibration curve and QC samples were prepared using 80% methanol in water (Thermo Fisher) as the diluent. To prepare plasma calibration standards and QC samples, 5 µL of each working solution was added to 45 µL of blank plasma and mixed. To the prepared calibration and QC samples, 300 µL of internal standard solution (tolbutamide at 8 µg/mL in acetonitrile, Thermo Fisher) was added. […] The supernatant was collected and analyzed by liquid chromatography-tandem mass spectrometry (LC-MS/MS; AB Sciex API 5000).
(§7) Plasma sample pretreatment: After thawing at room temperature, 50 µL of each plasma sample was mixed with 300 µL of the internal standard solution (tolbutamide at 8 µg/mL in acetonitrile, Thermo Fisher). […] The supernatant was collected and analyzed by LC-MS/MS (AB Sciex API 5000).
(§8) Raw chromatograms, concentrations, and accuracy data were generated using Analyst software version 1.6.3.
The conditions of data set [3]: mouse, in vivo, po, 10 mg/kg.
From the text: as §4, §5, §6, §7, §8
Setting [4] is: 6 nM NMT1 enzyme, 1.25 µM myristoyl-CoA, 20 µM HSPP60 SRC peptide, 45 minutes at 25 °C, read-out: NMT1 (IC50).

Like-named read-outs stand apart in the source and are kept apart here. Where only a bound is given, the exact number is not on record here.

For `CCc1nn(C)c(C)c1NS(=O)(=O)c1c(Cl)cc(-c2ccc3sc4c(c3c2)CNCC4)cc1Cl` [Compound 2], the Body weight entry in data set [1] is recorded as “slight decrease in body weight during the early phase of dosing, which subsequently returned to normal”. In the data set on MV-4-11 cells, the IC50 was 5.43 nM. Further, at NMT1 enzyme (setting [4]), the IC50 was 3.09 nM. In addition, the “Tumor volume / growth of MV-4-11 tumors” value in the data set with MV-4-11 tumors is “significantly inhibited the growth of MV-4-11 tumors and induced tumor regression”. In data set [2], this compound gave a concentration at 1 h of 2890 ± 858 ng/mL, a concentration at 4 h of 1960 ± 190 ng/mL and a concentration at 8 h of 915 ± 97 ng/mL.

Regarding `Cc1c(NS(=O)(=O)c2c(Cl)cc(-c3ccc4sc5c(c4c3)CNCC5)cc2Cl)c(CC(C)C)nn1C` [Compound 3], the Body weight result in data set [1] is “no weight loss throughout the study”. The IC50 with MV-4-11 cells was determined as 15 nM. In addition, on NMT1 enzyme (setting [4]), the IC50 worked out at 3.45 nM. In the data set with MV-4-11 tumors, the “Tumor volume / growth of MV-4-11 tumors” value was “significantly inhibited the growth of MV-4-11 tumors and induced tumor regression”. Besides, in data set [2], the concentration at 1 h turned out to be 2407 ± 21 ng/mL, the concentration at 4 h is 1980 ± 417 ng/mL and the concentration at 8 h worked out at 1140 ± 551 ng/mL.

For the compound `Cc1c(NS(=O)(=O)c2c(Cl)cc(-c3ccc4sc5c(c4c3)CNCC5)cc2Cl)c(CC#N)nn1C` [Compound 13], the Body weight result in data set [1] is “no weight loss throughout the study”. Also, the IC50 in the data set on MV-4-11 cells (Homo sapiens) is 19.3 nM; against NMT1 enzyme, 3.21 nM. Besides, in the data set on MV-4-11 tumors, the “Tumor volume / growth of MV-4-11 tumors” value is “significantly inhibited the growth of MV-4-11 tumors and induced tumor regression”. Moreover, the “1 h Concentration” value in data set [2] (ICR mice, oral single dose of 10 mg/kg in 0.5% CMC, 1 h post-dose, Mean ± SEM, n = 3) is 1893 ± 196 ng/mL. For the same compound, the “4 h Concentration” value in data set [2] (ICR mice, oral single dose of 10 mg/kg in 0.5% CMC, 4 h post-dose, Mean ± SEM, n = 3) came to 623 ± 109 ng/mL. Also, the “8 h Concentration” value in data set [2] (ICR mice, oral single dose of 10 mg/kg in 0.5% CMC, 8 h post-dose, Mean ± SEM, n = 3) is recorded as 334 ± 83 ng/mL.

Regarding `Cc1c(NS(=O)(=O)c2c(Cl)cc(-c3ccc4sc5c(c4c3)CNCC5)cc2Cl)c(CC2CC2)nn1C` [Compound 21], in data set [3], the “1 h Concentration” value was 1900 ± 199 ng/mL, the “4 h Concentration” value is reported as 1114 ± 196 ng/mL and the “8 h Concentration” value is given as 679 ± 220 ng/mL. Besides, the IC50 with MV-4-11 cells (Homo sapiens) was determined as 26.9 nM. It took 3.58 nM to reach half-maximal inhibition against NMT1 enzyme (IC50).

`Cc1c(NS(=O)(=O)c2c(Cl)cc(-c3ccc4oc5c(c4c3)CNCC5)cc2Cl)c(CC(C)C)nn1C` [Compound 45]: the Body weight entry in data set [1] was “slight weight loss in the later phase”. The Weight loss in data set [1] (later phase) is at most 10%. In addition, the IC50 with MV-4-11 cells was determined as 43.7 nM. At NMT1 enzyme (setting [4]), the IC50 came to 5.38 nM. Besides, the “Tumor volume / growth of MV-4-11 tumors” value in the data set with MV-4-11 tumors was “significantly inhibited the growth of MV-4-11 tumors and induced tumor regression”. In data set [2], this compound came in with a concentration at 1 h of 2970 ± 855 ng/mL, a concentration at 4 h of 3260 ± 876 ng/mL and a concentration at 8 h of 1960 ± 467 ng/mL.

As to `Cc1c(NS(=O)(=O)c2c(Cl)cc(N3CCc4sc5c(c4C3)CNCC5)cc2Cl)c(CC(F)(F)F)nn1C` [Compound B35], in data set [3], the “1 h Concentration” value stood at 2267 ± 1084 ng/mL, the “4 h Concentration” value is 1270 ± 384 ng/mL and the “8 h Concentration” value came to 684 ± 239 ng/mL. The same compound registered a half-inhibitory concentration (IC50) in the data set on MV-4-11 cells (Homo sapiens) of 7.48 nM. On NMT1 enzyme, this compound yielded an IC50 of 1.97 nM.

`Cc1c(NS(=O)(=O)c2ccc(-c3ccc4oc5c(c4c3)CNCC5)cc2)c(CCF)nn1C` [Compound B53] showed an IC50 in the data set with MV-4-11 cells of 27.2 nM. The IC50 on NMT1 enzyme (setting [4]) is 4.02 nM. Moreover, in data set [2], the concentration at 1 h turned out to be 2480 ± 626 ng/mL, the concentration at 4 h was found to be 1020 ± 361 ng/mL and the concentration at 8 h was 399 ± 264 ng/mL.

`Cc1c(NS(=O)(=O)c2ccc(-c3ccc4sc5c(c4c3)CNCC5)cc2Cl)c(CC(F)F)nn1C` [Compound B59]: the IC50 in the data set on MV-4-11 cells is 5.3 nM. On NMT1 enzyme (setting [4]), the half-inhibitory concentration (IC50) stood at 1.93 nM. In data set [2], this compound showed a concentration at 1 h of 1870 ± 389 ng/mL, a concentration at 4 h of 846 ± 698 ng/mL and a concentration at 8 h of 149 ± 114 ng/mL.

Take `Cc1c(NS(=O)(=O)c2ccc(-c3ccc4oc5c(c4c3)CNCC5)cc2)c(CC(F)F)nn1C` [Compound B64]: the IC50 with MV-4-11 cells turned out to be 30.2 nM. On NMT1 enzyme (setting [4]), the IC50 was found to be 4.08 nM. In data set [2], the concentration at 1 h is 1660 ± 366 ng/mL, the concentration at 4 h was 795 ± 127 ng/mL and the concentration at 8 h came out at 260 ± 63 ng/mL.

These data come from EP4810492A1, “NMT INHIBITOR, PREPARATION METHOD THEREFOR, AND USE THEREOF” (Nanjing Synnocare Pharmaceutical Technology Co., Ltd., priority 2023, dated 2025).
